The text below walks through data of patent publication US4185106A, “Pyridones as antidandruff agents” (Hoechst Aktiengesellschaft, priority 1972, dated 1980).

For data set [1] the following is noted: prior art compounds, cited from earlier work.
The next data set can be described thus: in vivo. The source says: [formula] a=ethanolamine salt of 1-hydroxy-4,6-dimethyl-2-pyridone b=zinc salt of 1-hydroxy-4,6-dimethyl-2-pyridone c=zinc salt of 1-hydroxy-4-methyl-6-(2,4,4-trimethyl-pentyl)2-pyridone d=ethanolamine salt of 1-hydroxy-4-methyl-6-cyclohexyl-2-pyridone, administered in starch mucilage e=zinc salt of 1-hydroxy-4-methyl-6-cyclohexyl-2-pyridoneand [formula]

For the next data set, the system named is dandruff. The following applies: half-side washing repeated over several weeks at determined intervals.
In the next data set the test system is skin. As to conditions: J. Soc. Cosmet. Chem. 23 (1972), pages 100, 112; cited from earlier work.

Molecules are shown by their SMILES. Where a name gives a salt, the structure may show the parent alone. A value given as a limit tells only on which side of the number the result lay.

`On1ccccc1=S` [1-hydroxy-2-pyridine-thione]: in data set [1], the stability to heat entry is listed as “sensitive to heat” and the stability to light entry is listed as “not stable to light”.

What is called LD50 is the dose at which mortality reaches 50%. A lower LD50 goes with a more toxic substance. As for `Cc1cc(C)n(O)c(=O)c1` [a, ethanolamine salt of 1-hydroxy-4,6-dimethyl-2-pyridone], the LD50 in the data set “in vivo” (in vivo) was greater than 4480 mg/kg.

For `Cc1cc(C)n([O-])c(=O)c1.Cc1cc(C)n([O-])c(=O)c1.[Zn+2]` [b, zinc salt of 1-hydroxy-4,6-dimethyl-2-pyridone], the LD50 entry in the data set “in vivo” (species and route not given) is on record as “more than 6400 mg/kg”.

Regarding `Cc1cc(CC(C)CC(C)(C)C)n([O-])c(=O)c1.Cc1cc(CC(C)CC(C)(C)C)n([O-])c(=O)c1.[Zn+2]` (stereo not drawn) [c, zinc salt of 1-hydroxy-4-methyl-6-(2,4,4-trimethyl-pentyl)2-pyridone], the LD50 result in “in vivo” (species and route not given) is “more than 6400 mg/kg”.

`Cc1cc(C2CCCCC2)n(O)c(=O)c1` [d, ethanolamine salt of 1-hydroxy-4-methyl-6-cyclohexyl-2-pyridone] registered an LD50 in “in vivo” (in vivo) of 5500 mg/kg.

For the compound `Cc1cc(C2CCCCC2)n([O-])c(=O)c1.Cc1cc(C2CCCCC2)n([O-])c(=O)c1.[Zn+2]` [e, zinc salt of 1-hydroxy-4-methyl-6-cyclohexyl-2-pyridone], the LD50 result in “in vivo” (species and route not given) is “more than 6400 mg/kg”.

In turn, `[O-]n1ccccc1=S.[O-]n1ccccc1=S.[Zn+2]` [g, zinc salt of 1-hydroxy-2-pyridine-thione] came in with an LD50 in “in vivo” (species and route not given) of 700 mg/kg. Besides, the “removal of dandruff after standardized washing” value in the data set on dandruff is on record as “dandruff still showed in many cases”. Besides, the sensitivity to oxidation entry in data set [1] (mild oxidizing agents form 2,2'-dithio-bis(pyridine-1-oxide)) is “sensitive to oxidation”.

Regarding `On1ccccc1=S.[Na]` [sodium-1-hydroxy-2-pyridine-thione], the dermal toxicity result in the data set with skin is reported as “considerable dermal toxicity”. Besides, the stability to hydrolysis entry in data set [1] was “not stable to hydrolysis”.
